Test results: ChEMBL document CHEMBL3352400, “4-Functionalized 1,3-diarylpyrazoles bearing 6-aminosulfonylbenzothiazole moiety as potent inhibitors of carbonic anhydrase isoforms hCA I, II, IX and XII” (Bioorg Med Chem, 2014)

Experiments:
[1] = target: Carbonic anhydrase 9 (Homo sapiens, UniProt Q16790); test: Inhibition of human carbonic anhydrase 9 by stopped flow CO2 hydrase assay method
[2] = target: Carbonic anhydrase 12 (Homo sapiens, UniProt O43570); test: Inhibition of human carbonic anhydrase 12 by stopped flow CO2 hydrase assay method
[3] = target: Carbonic anhydrase 1 (Homo sapiens, UniProt P00915); test: Inhibition of human carbonic anhydrase 1 by stopped flow CO2 hydrase assay method
Chain of Carbonic anhydrase 1 (P00915 whole entry): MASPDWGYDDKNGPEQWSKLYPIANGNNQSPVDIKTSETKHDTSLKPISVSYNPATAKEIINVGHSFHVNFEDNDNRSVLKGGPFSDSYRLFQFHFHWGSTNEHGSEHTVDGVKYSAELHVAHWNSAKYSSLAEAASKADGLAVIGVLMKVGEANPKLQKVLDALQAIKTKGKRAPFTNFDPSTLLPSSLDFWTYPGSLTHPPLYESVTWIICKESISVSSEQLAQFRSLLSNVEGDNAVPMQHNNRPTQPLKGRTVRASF

Chain of Carbonic anhydrase 12 (O43570 whole entry): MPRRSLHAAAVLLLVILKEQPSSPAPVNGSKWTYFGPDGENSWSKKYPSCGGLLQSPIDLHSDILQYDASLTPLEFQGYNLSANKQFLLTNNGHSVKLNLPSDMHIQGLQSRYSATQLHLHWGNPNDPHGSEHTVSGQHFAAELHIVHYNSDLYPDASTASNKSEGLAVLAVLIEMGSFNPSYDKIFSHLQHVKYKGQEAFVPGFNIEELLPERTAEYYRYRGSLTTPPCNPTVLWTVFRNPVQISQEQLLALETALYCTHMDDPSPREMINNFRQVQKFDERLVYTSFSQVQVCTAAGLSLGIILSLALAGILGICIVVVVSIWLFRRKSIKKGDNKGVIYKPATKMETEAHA

Ki [1] [nM]	Ki [2] [nM]	Ki [3] [nM]	Compound
109			Cc1ccc(-c2nn(-c3nc4ccc(S(N)(=O)=O)cc4s3)cc2C(=O)O)cc1
1750			NS(=O)(=O)c1ccc2nc(-n3cc(C=O)c(-c4ccccc4)n3)sc2c1
699			Cc1ccc(-c2nn(-c3nc4ccc(S(N)(=O)=O)cc4s3)cc2C=O)cc1
229			COc1ccc(-c2nn(-c3nc4ccc(S(N)(=O)=O)cc4s3)cc2C=O)cc1
	> 10000		NS(=O)(=O)c1ccc2nc(-n3cc(C=O)c(-c4ccc(F)cc4)n3)sc2c1
1690			NS(=O)(=O)c1ccc2nc(-n3cc(C=O)c(-c4ccc(Cl)cc4)n3)sc2c1
2110			NS(=O)(=O)c1ccc2nc(-n3cc(C=O)c(-c4ccc([N+](=O)[O-])cc4)n3)sc2c1
752			NS(=O)(=O)c1ccc2nc(-n3cc(C(=O)O)c(-c4ccccc4)n3)sc2c1
842			COc1ccc(-c2nn(-c3nc4ccc(S(N)(=O)=O)cc4s3)cc2C(=O)O)cc1
62.4			NS(=O)(=O)c1ccc2nc(-n3cc(C(=O)O)c(-c4ccc(F)cc4)n3)sc2c1
60.4			NS(=O)(=O)c1ccc2nc(-n3cc(C(=O)O)c(-c4ccc([N+](=O)[O-])cc4)n3)sc2c1
81.6			N#Cc1cn(-c2nc3ccc(S(N)(=O)=O)cc3s2)nc1-c1ccccc1
186		> 50000	Cc1ccc(-c2nn(-c3nc4ccc(S(N)(=O)=O)cc4s3)cc2C#N)cc1
739			N#Cc1cn(-c2nc3ccc(S(N)(=O)=O)cc3s2)nc1-c1ccc(F)cc1
224		> 50000	N#Cc1cn(-c2nc3ccc(S(N)(=O)=O)cc3s2)nc1-c1ccc(Cl)cc1
854		> 50000	N#Cc1cn(-c2nc3ccc(S(N)(=O)=O)cc3s2)nc1-c1ccc([N+](=O)[O-])cc1
114			NS(=O)(=O)c1ccc2nc(-n3cc(/C=N/O)c(-c4ccccc4)n3)sc2c1
134			Cc1ccc(-c2nn(-c3nc4ccc(S(N)(=O)=O)cc4s3)cc2/C=N/O)cc1
91.6		> 50000	COc1ccc(-c2nn(-c3nc4ccc(S(N)(=O)=O)cc4s3)cc2/C=N/O)cc1
224			NS(=O)(=O)c1ccc2nc(-n3cc(/C=N/O)c(-c4ccc(F)cc4)n3)sc2c1
152			NS(=O)(=O)c1ccc2nc(-n3cc(/C=N/O)c(-c4ccc(Cl)cc4)n3)sc2c1

Compound	Ki [1] [nM]	Ki [2] [nM]	Ki [3] [nM]
NS(=O)(=O)c1ccc2nc(-n3cc(C(=O)O)c(-c4ccc(Cl)cc4)n3)sc2c1	2.8		
COc1ccc(-c2nn(-c3nc4ccc(S(N)(=O)=O)cc4s3)cc2C#N)cc1	111		> 50000
